# Measured values: article PMC6118387, “In silico drug absorption tract: An agent-based biomimetic model for human oral drug absorption” (PLoS ONE, 2018)
# Values joined by “and” are separate entries in the source; they are usually repeats but may differ in a detail not shown here. Equal values may be shown once. Read-outs that look alike come from different tables or passages of the source.
# Legend:
# [1] = Clinical bioequivalence study: plasma concentrations (LC-MS-MS) and noncompartmental PK after oral tablet; format: in vivo, human
# [2] = model drug parameter fixed to literature reported value; cited from earlier work
# [3] = midazolam, literature referent value, cited from earlier work
# [4] = Referent clinical, midazolam 15 mg tablet oral, N = 15, mean ±1 SD
# [5] = human, plasma, Referent clinical, midazolam 15 mg tablet oral, N = 15, mean ±1 SD
structure (smiles),measurement,setting,value
"Cc1ncc2n1-c1ccc(Cl)cc1C(c1ccccc1F)=NC2 [Midazolam, midazolam]",CL/F,[1]; [4],57.72 ± 19.31 L/h
same,V/F,[1]; [4],205.20 ± 56.75 L
same,Tmax,"[1]; Referent clinical, midazolam 15 mg tablet oral, N = 15, median",30 min
same,Cmax,"[1]; human, plasma, oral, 15 mg, midazolam, peak of the mean clinical concentration-time profile over 24 hours",90.2 ng/mL
same,concentration at 0 h,"[1]; human, plasma, po, 15 mg, midazolam 15 mg oral, plasma, mean (±1 SD) N=15, read-out: Concentration, Referent",0 ng/mL
same,concentration at 0 h,"[1]; human, plasma, po, 15 mg, midazolam 15 mg oral, plasma, one value per subject (columns A1-A8, B1-B7), read-out: Concentration, individual subjects",0 ng/mL
same,concentration at 0.25 h,"[1]; human, plasma, po, 15 mg, midazolam 15 mg oral, plasma, 0.25 h, mean (±1 SD) N=15, read-out: Concentration, Referent",12.2 ± 14.4 ng/mL
same,concentration at 0.5 h,"[1]; human, plasma, po, 15 mg, midazolam 15 mg oral, plasma, 0.5 h, mean (±1 SD) N=15, read-out: Concentration, Referent",90.2 ± 47.6 ng/mL
same,concentration at 1 h,"[1]; human, plasma, po, 15 mg, midazolam 15 mg oral, plasma, 1 h, mean (±1 SD) N=15, read-out: Concentration, Referent",56.6 ± 22.6 ng/mL
same,concentration at 1.5 h,"[1]; human, plasma, po, 15 mg, midazolam 15 mg oral, plasma, 1.5 h, mean (±1 SD) N=15, read-out: Concentration, Referent",46.8 ± 12.5 ng/mL
same,concentration at 2 h,"[1]; human, plasma, po, 15 mg, midazolam 15 mg oral, plasma, 2 h, mean (±1 SD) N=15, read-out: Concentration, Referent",47.8 ± 19.1 ng/mL
same,concentration at 2.5 h,"[1]; human, plasma, po, 15 mg, midazolam 15 mg oral, plasma, 2.5 h, mean (±1 SD) N=15, read-out: Concentration, Referent",41.1 ± 15.1 ng/mL
same,concentration at 3 h,"[1]; human, plasma, po, 15 mg, midazolam 15 mg oral, plasma, 3 h, mean (±1 SD) N=15, read-out: Concentration, Referent",40.3 ± 26.1 ng/mL
same,concentration at 4 h,"[1]; human, plasma, po, 15 mg, midazolam 15 mg oral, plasma, 4 h, mean (±1 SD) N=15, read-out: Concentration, Referent",32.4 ± 21.1 ng/mL
same,concentration at 6 h,"[1]; human, plasma, po, 15 mg, midazolam 15 mg oral, plasma, 6 h, mean (±1 SD) N=15, read-out: Concentration, Referent",15.6 ± 9.4 ng/mL
same,concentration at 8 h,"[1]; human, plasma, po, 15 mg, midazolam 15 mg oral, plasma, 8 h, mean (±1 SD) N=15, read-out: Concentration, Referent",9.33 ± 5.73 ng/mL
same,concentration at 10 h,"[1]; human, plasma, po, 15 mg, midazolam 15 mg oral, plasma, 10 h, mean (±1 SD) N=15, read-out: Concentration, Referent",5.75 ± 4.06 ng/mL
same,concentration at 12 h,"[1]; human, plasma, po, 15 mg, midazolam 15 mg oral, plasma, 12 h, mean (±1 SD) N=15, read-out: Concentration, Referent",3.48 ± 2.75 ng/mL
same,concentration at 24 h,"[1]; human, plasma, po, 15 mg, midazolam 15 mg oral, plasma, 24 h, mean (±1 SD) N=15, read-out: Concentration, Referent",0.41 ± 0.63 ng/mL
same,AUC,[1]; [5],296 ± 126 ng·h/mL
same,Cmax,[1]; [5],101 ± 33 ng/mL
same,k el,[1]; [5],7.78e-05 s⁻¹
same,"Concentration, individual subjects","[1]; midazolam 15 mg oral, plasma, 2.5 h, one value per subject (columns A1-A8, B1-B7)",54.91 ng/mL and 40.38 ng/mL and 25.80 ng/mL and 40.78 ng/mL and 31.74 ng/mL and 48.76 ng/mL and 34.21 ng/mL and 20.63 ng/mL and 33.92 ng/mL and 30.24 ng/mL and 57.61 ng/mL and 24.84 ng/mL and 35.19 ng/mL and 58.33 ng/mL and 78.77 ng/mL
same,"Concentration, individual subjects","[1]; midazolam 15 mg oral, plasma, 3 h, one value per subject (columns A1-A8, B1-B7)",52.06 ng/mL and 27.73 ng/mL and 21.71 ng/mL and 25.74 ng/mL and 36.83 ng/mL and 69.41 ng/mL and 35.36 ng/mL and 17.14 ng/mL and 26.32 ng/mL and 22.37 ng/mL and 41.78 ng/mL and 21.67 ng/mL and 38.29 ng/mL and 47.32 ng/mL and 120.12 ng/mL
same,"Concentration, individual subjects","[1]; midazolam 15 mg oral, plasma, 4 h, one value per subject (columns A1-A8, B1-B7)",42.50 ng/mL and 20.80 ng/mL and 19.34 ng/mL and 20.60 ng/mL and 28.96 ng/mL and 77.03 ng/mL and 23.38 ng/mL and 14.36 ng/mL and 20.65 ng/mL and 15.37 ng/mL and 24.77 ng/mL and 22.90 ng/mL and 30.75 ng/mL and 41.37 ng/mL and 83.44 ng/mL
same,"Concentration, individual subjects","[1]; midazolam 15 mg oral, plasma, 6 h, one value per subject (columns A1-A8, B1-B7)",24.75 ng/mL and 8.47 ng/mL and 11.09 ng/mL and 8.46 ng/mL and 15.04 ng/mL and 29.67 ng/mL and 12.43 ng/mL and 6.69 ng/mL and 9.53 ng/mL and 10.09 ng/mL and 12.41 ng/mL and 7.25 ng/mL and 15.05 ng/mL and 24.91 ng/mL and 38.15 ng/mL
same,"Concentration, individual subjects","[1]; midazolam 15 mg oral, plasma, 8 h, one value per subject (columns A1-A8, B1-B7)",14.78 ng/mL and 4.58 ng/mL and 5.87 ng/mL and 3.98 ng/mL and 6.08 ng/mL and 15.63 ng/mL and 6.16 ng/mL and 4.20 ng/mL and 7.07 ng/mL and 8.11 ng/mL and 11.11 ng/mL and 3.58 ng/mL and 8.96 ng/mL and 17.42 ng/mL and 22.42 ng/mL
same,"Concentration, individual subjects","[1]; midazolam 15 mg oral, plasma, 10 h, one value per subject (columns A1-A8, B1-B7)",9.22 ng/mL and 2.05 ng/mL and 4.27 ng/mL and 2.24 ng/mL and 3.91 ng/mL and 8.93 ng/mL and 3.37 ng/mL and 2.53 ng/mL and 5.05 ng/mL and 3.40 ng/mL and 6.04 ng/mL and 1.38 ng/mL and 5.79 ng/mL and 13.69 ng/mL and 14.29 ng/mL
same,"Concentration, individual subjects","[1]; midazolam 15 mg oral, plasma, 12 h, one value per subject (columns A1-A8, B1-B7)",5.37 ng/mL and 1.26 ng/mL and 2.53 ng/mL and 1.54 ng/mL
same,"logP, In silico Logarithm of partition coefficient",[2],3.6
same,F (absolute oral bioavailability),[3],31–72%
same,Fa × Fg,[3],48–76%
same,Fh,[3],36–57%
same,Fa × Fg,[3]; listed as midazolam,48–76%
same,Fh,[3]; listed as midazolam,36–57%
